Values quoted from earlier work in patent US10092573B2, “Gastric and colonic formulations and methods for making and using them” (Salix Pharmaceuticals, Inc., priority 2010, dated 2018).
Entries after “also recorded” stand apart in the source; their conditions may differ. Where two headings read alike, the source gives them in different places.

Assays:
[1] = not given; remark: listed apart in the source

Row | SMILES | association with ischemic colitis (10 mg tablet form in combination with HALFLYTELY) | association with ischemic colitis (doses of 20 mg) | ischemic colitis (widespread chronic use at a lower dosage range, often daily, for constipation or bloating) | effect on creatinine, urea or electrolytes (sodium, potassium, chloride, phosphate) output ([1]; 24 hour output, renal) | doses with no recorded significant human gastroenterological side effects ([1]; human) | carcinogenic, mutagenic or teratogenic potential ([1]; in vivo) | share of the ingested erythritol that enters the colon ([1]; in vivo) | systemic metabolism and excretion of absorbed erythritol ([1]; in vivo) | toxicological effects in safety studies ([1]; in vivo)
1 | CC(=O)Oc1ccc(C(c2ccc(OC(C)=O)cc2)c2ccccn2)cc1 [Bisacodyl, 4,4′-(pyridin-2-ylmethylene) bis(4,1-phenylene) diacetate] | less frequently | on rare occasions | No ischemic colitis has been consistently observed or reported | – | – | – | – | – | –
2 | OC[C@@H](O)[C@@H](O)CO [Erythritol, (2R,3S)-butane-1,2,3,4-tetraol] | – | – | – | no effect; also recorded: does not influence | up to 1000 mg/kg body weight/day | does not have any | about 10% | not metabolized systemically and is excreted unchanged in urine | no toxicological effects
